Patent US9931308B2, “Compositions and methods using P-anisaldehyde” (NESTEC S.A., priority 2013, dated 2018)
Like-named read-outs stand apart in the source and are kept apart here.

Columns and labels:
TRPM8 = TRPM8 (Homo sapiens, UniProt Q7Z2W7); test: in vitro activation of hTRPM8 in cells expressing TRP channels (FIG. 7); format: cell-based; set-up: expressed in transfected cells; an “empty” cell control implies recombinant expression; conditions: FIG. 7, upward pointing triangles
"empty" cells = test: in vitro activation on "empty" cells, control (FIG. 7); format: cell-based; conditions: FIG. 7, downward pointing triangles
TRPV1 = molecular target: T1, TRPV1 (Homo sapiens, UniProt Q8NER1); test: in vitro activation of TRPV1 in cells expressing TRP channels (FIG. 7); format: cell-based; conditions: FIG. 7, squares; read-out: EC 50 TRPV1 activation
T1 construct: expressed in transfected cells; an “empty” cell control implies recombinant expression
T1 sequence (Q8NER1 whole entry, species assumed): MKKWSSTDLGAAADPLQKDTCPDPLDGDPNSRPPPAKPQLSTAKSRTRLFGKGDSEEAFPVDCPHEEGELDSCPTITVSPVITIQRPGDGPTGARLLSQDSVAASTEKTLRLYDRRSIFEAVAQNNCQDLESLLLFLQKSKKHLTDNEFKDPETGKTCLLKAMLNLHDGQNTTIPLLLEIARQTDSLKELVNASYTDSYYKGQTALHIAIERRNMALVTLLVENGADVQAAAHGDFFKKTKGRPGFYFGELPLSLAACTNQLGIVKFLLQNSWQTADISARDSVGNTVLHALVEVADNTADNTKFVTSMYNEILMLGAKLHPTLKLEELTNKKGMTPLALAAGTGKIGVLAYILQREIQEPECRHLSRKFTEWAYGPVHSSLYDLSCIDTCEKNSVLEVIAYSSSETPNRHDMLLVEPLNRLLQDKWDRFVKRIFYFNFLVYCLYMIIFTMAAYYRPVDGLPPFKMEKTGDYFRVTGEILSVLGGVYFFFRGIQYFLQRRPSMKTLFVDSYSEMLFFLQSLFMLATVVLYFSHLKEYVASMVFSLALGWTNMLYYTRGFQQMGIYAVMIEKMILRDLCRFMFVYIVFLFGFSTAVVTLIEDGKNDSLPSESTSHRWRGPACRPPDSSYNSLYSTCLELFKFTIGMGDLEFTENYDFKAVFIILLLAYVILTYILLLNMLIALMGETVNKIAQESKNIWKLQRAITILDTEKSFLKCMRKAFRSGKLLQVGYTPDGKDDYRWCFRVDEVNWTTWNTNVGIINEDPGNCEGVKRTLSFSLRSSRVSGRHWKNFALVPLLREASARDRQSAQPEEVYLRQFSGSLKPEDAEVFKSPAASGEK

TRPA1 [1] = molecular target: T2, TRPA1 (Homo sapiens, UniProt O75762); test: in vitro activation of TRPA1 in cells expressing TRP channels (FIG. 7); format: cell-based; conditions: FIG. 7, circles; read-out: EC-50 TRPA1 activation
T2 sequence (O75762 whole entry, species assumed): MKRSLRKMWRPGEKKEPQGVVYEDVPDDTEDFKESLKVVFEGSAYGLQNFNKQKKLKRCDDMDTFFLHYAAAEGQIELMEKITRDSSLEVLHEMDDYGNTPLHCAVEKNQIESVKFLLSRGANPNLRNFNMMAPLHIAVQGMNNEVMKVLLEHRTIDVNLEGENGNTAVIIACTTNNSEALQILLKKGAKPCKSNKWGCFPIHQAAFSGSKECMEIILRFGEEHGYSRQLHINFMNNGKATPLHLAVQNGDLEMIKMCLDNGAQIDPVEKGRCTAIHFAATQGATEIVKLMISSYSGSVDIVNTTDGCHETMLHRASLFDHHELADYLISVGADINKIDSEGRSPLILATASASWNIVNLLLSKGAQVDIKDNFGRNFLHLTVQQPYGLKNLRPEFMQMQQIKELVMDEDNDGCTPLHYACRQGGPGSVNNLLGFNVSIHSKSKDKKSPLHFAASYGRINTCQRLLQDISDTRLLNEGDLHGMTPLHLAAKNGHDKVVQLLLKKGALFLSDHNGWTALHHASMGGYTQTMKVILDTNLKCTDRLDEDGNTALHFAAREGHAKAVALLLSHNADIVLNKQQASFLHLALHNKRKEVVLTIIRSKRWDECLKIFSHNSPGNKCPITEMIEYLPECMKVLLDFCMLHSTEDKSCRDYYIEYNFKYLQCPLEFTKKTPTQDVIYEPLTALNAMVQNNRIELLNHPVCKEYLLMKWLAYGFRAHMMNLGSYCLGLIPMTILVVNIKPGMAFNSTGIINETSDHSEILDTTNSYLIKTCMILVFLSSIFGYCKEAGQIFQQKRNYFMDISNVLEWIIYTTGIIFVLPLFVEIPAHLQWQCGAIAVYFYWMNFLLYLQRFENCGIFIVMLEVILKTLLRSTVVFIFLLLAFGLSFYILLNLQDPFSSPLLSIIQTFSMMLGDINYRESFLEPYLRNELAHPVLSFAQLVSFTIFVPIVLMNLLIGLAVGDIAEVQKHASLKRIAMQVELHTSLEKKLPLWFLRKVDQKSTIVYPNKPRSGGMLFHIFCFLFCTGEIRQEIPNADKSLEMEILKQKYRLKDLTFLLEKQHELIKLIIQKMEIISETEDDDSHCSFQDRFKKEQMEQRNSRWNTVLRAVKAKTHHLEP

mice [2] = test: insulin sensitivity in mice with chronic ingestion, high fat diet (FIG. 4); format: in vivo; conditions: mice chronically fed high fat diet containing 0.2 wt % compound vs same diet without
mice [3] = test: gastric emptying after a single ingestion in mice (FIG. 6); format: in vivo; conditions: single dose vs sham gavage
TRPA1 [4] = molecular target: T2, TRPA1; conditions: known TRPA1 agonist; read-out: EC50 TRPA1 activation; cited from earlier work
mice [5] = test: body weight gain in mice with chronic ingestion, high fat diet (FIG. 3); format: in vivo; conditions: mice chronically fed high fat diet containing 0.2 wt % compound vs same diet without
mice [6] = test: short term food intake after a single ingestion in mice (FIG. 5); format: in vivo; conditions: single dose vs sham gavage

Sequence of TRPM8 (Q7Z2W7 whole entry): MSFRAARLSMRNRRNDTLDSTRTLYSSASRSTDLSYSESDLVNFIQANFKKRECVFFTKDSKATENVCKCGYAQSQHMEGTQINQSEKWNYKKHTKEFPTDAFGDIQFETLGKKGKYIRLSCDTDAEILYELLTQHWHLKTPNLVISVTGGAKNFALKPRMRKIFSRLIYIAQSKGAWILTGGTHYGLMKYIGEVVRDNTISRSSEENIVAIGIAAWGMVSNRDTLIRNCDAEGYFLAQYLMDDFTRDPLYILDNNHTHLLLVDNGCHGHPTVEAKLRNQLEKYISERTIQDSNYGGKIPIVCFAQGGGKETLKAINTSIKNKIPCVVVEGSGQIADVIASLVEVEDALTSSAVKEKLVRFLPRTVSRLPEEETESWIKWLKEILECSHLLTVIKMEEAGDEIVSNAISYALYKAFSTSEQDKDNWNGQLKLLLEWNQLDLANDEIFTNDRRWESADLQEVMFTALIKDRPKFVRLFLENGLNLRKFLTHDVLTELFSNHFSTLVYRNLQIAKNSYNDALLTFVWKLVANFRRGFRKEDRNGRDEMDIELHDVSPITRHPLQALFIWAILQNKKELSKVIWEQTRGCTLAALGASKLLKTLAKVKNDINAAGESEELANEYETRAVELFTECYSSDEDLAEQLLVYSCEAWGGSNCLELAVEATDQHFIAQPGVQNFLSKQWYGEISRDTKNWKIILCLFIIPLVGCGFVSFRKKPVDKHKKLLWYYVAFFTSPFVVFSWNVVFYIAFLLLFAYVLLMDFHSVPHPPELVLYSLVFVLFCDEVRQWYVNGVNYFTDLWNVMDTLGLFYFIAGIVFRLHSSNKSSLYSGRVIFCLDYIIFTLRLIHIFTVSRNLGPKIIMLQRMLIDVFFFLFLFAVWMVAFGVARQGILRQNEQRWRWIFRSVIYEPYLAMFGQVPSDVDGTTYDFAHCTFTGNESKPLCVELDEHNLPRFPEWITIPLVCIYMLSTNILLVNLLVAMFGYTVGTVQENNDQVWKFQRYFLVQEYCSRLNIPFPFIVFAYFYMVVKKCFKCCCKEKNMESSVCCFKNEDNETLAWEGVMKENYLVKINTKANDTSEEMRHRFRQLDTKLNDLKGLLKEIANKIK

Structure (SMILES) | activation of hTRPM8 (TRPM8) | activation of "empty" cells ("empty" cells) | EC50 (TRPV1) [µM] | EC50 (TRPA1 [1]) [µM] | insulin sensitivity (mice [2]) | gastric emptying (mice [3]) | EC50 (TRPA1 [4]) [µM] | body weight gain (mice [5]) | short term food intake (mice [6])
COc1ccc(C=O)cc1 [p-anisaldehyde] | no activation was observed | no activation was observed | ~500 | ~100 | – | – | – | – | –
O=CC=Cc1ccccc1 [cinnamaldehyde] | – | – | – | – | improved insulin sensitivity | delayed gastric emptying | ~60 | gained less weight | reduction in short term food intake
